ChEMBL document CHEMBL1146583, “Acetylenic acids inhibiting azole-resistant Candida albicans from Pentagonia gigantifolia” (J Nat Prod, 2003)
Values after ≈ are worked out from the molar mass of the structure shown. Active and inactive are the calls of the source. The calls are words filed in the database; no cut-off is given here.

Experiments:
Candida albicans [1] = assay: Antifungal activity against Candida albicans ATCC 90028 after 24 to 48 hrs by NCCLS method; assay type: functional, organism-based
Candida albicans [2] = assay: Antifungal activity against Candida albicans ATCC 90028 by sphingolipid reversal assay in presence of 5.0 ug/mL dihydrosphingosine; assay type: functional, organism-based
Candida albicans [3] = assay: Antifungal activity against Candida albicans ATCC 90028 by sphingolipid reversal assay in presence of 5 ug/mL stearylamine; assay type: functional, organism-based
SK-OV-3 = assay: Cytotoxicity against human SKOV3 cells at 10 ug/mL; assay type: functional, cell-based
Candida albicans [4] = assay: Antifungal activity against fluconazole-resistant Candida albicans isolate 2 after 24 to 48 hrs by NCCLS method; assay type: functional, organism-based; conditions: for IC50 / IC80: Candida albicans
Candida albicans [5] = assay: Antifungal activity against fluconazole-resistant Candida albicans isolate 5 after 24 to 48 hrs by NCCLS method; assay type: functional, organism-based; conditions: for IC50 / IC80: Candida albicans
Candida albicans [6] = assay: Antifungal activity against Candida albicans ATCC 90028 by sphingolipid reversal assay in presence of 2.5 ug/mL dihydrosphingosine; assay type: functional, organism-based
Candida albicans [7] = assay: Antifungal activity against Candida albicans ATCC 90028 by sphingolipid reversal assay in presence of 1.25 ug/mL dihydrosphingosine; assay type: functional, organism-based
BT-549 = assay: Cytotoxicity against human BT549 cells at 10 ug/mL; assay type: functional, cell-based
KB = assay: Cytotoxicity against human KB cells at 10 ug/mL; assay type: functional, cell-based
Candida albicans [8] = assay: Antifungal activity against Candida albicans ATCC 90028 by sphingolipid reversal assay in presence of 30 ug/mL stearylamine; assay type: functional, organism-based
SK-MEL = assay: Cytotoxicity against human SK-MEL cells at 10 ug/mL; assay type: functional, cell-based
Candida albicans [9] = assay: Antifungal activity against fluconazole-resistant Candida albicans isolate 8 after 24 to 48 hrs by NCCLS method; assay type: functional, organism-based; conditions: for IC50 / IC80: Candida albicans
Candida albicans [10] = assay: Antifungal activity against Candida albicans ATCC 90028 by sphingolipid reversal assay in presence of 15 ug/mL stearylamine; assay type: functional, organism-based
Candida albicans [11] = assay: Antifungal activity against fluconazole-susceptible Candida albicans isolate 1 after 24 to 48 hrs by NCCLS method; assay type: functional, organism-based; conditions: for IC50 / IC80: Candida albicans
Vero = assay: Cytotoxicity against african green monkey Vero cells at 10 ug/mL; assay type: cell-based; conditions: chlorocebus sabaeus
Candida albicans [12] = assay: Antifungal activity against fluconazole-resistant Candida albicans isolate 17 after 24 to 48 hrs by NCCLS method; assay type: functional, organism-based; conditions: for IC50 / IC80: Candida albicans
Candida albicans [13] = assay: Antifungal activity against fluconazole-resistant Candida albicans isolate 17 at 100 ug/mL after 24 to 48 hrs by NCCLS method; assay type: functional, organism-based

| Structure (SMILES) | IC50 (Candida albicans [2]) [µg/mL] | IC50 (Candida albicans [3]) [µg/mL] | Fungicidal (Candida albicans [4]) [µg/mL] | IC50 (Candida albicans [4]) [µg/mL] | IC80 (Candida albicans [4]) [µg/mL] | Fungicidal (Candida albicans [5]) [µg/mL] | IC50 (Candida albicans [5]) [µg/mL] | IC80 (Candida albicans [5]) [µg/mL] | IC50 (Candida albicans [1]) [µg/mL] | MIC (Candida albicans [1]) [µg/mL] | IC50 (Candida albicans [6]) [µg/mL] | IC50 (Candida albicans [7]) [µg/mL] | IC50 (Candida albicans [8]) [µg/mL] | Fungicidal (Candida albicans [9]) [µg/mL] | IC50 (Candida albicans [9]) [µg/mL] | IC80 (Candida albicans [9]) [µg/mL] | IC50 (Candida albicans [10]) [µg/mL] | Fungicidal (Candida albicans [11]) [µg/mL] | IC80 (Candida albicans [11]) [µg/mL] | IC50 (Candida albicans [12]) [µg/mL] | also measured |
| --- | --- | --- | --- | --- | --- | --- | --- | --- | --- | --- | --- | --- | --- | --- | --- | --- | --- | --- | --- | --- | --- |
| CCCCCCCCCCCC#CCCCCC(=O)OC | – | – | – | – | – | – | – | – | – | – | – | – | – | – | – | – | – | – | – | – | Activity (Candida albicans [1]): inactive |
| CCCCCCCCCCCCC#CCCCCC(=O)OC | – | – | – | – | – | – | – | – | – | – | – | – | – | – | – | – | – | – | – | – | Activity (Candida albicans [1]): inactive |
| CCCCCCCCCCCCC#CCCCCC(=O)O [6-NONADECYNOIC ACID] | 4.5 | 5 | 0.35 | 0.25 (≈ 0.849 µM) | 0.3 (≈ 1.02 µM) | 0.8 | 0.45 (≈ 1.53 µM) | 0.6 (≈ 2.04 µM) | 0.33 (≈ 1.12 µM) | 0.52 (≈ 1.77 µM) | 2 | 1 | 35 | 0.8 | 0.5 (≈ 1.7 µM) | 0.65 (≈ 2.21 µM) | 15 | 0.45 | 0.35 (≈ 1.19 µM) | 0.45 (≈ 1.53 µM) | Activity (SK-OV-3): inactive; Activity (BT-549): inactive; Activity (KB): inactive; Activity (SK-MEL): inactive; IC50 (Candida albicans [11]): 0.25 µg/mL (≈ 0.849 µM); Activity (Vero): Not Active; Fungicidal (Candida albicans [12]): 0.7 µg/mL; IC80 (Candida albicans [12]): 0.6 µg/mL (≈ 2.04 µM) |
| CCCCCCCCCCCC#CCCCCC(=O)O [6-OCTADECYNOIC ACID] | 4.5 | 3.5 | 0.75 | 0.5 (≈ 1.78 µM) | 0.65 (≈ 2.32 µM) | 2 | 0.7 (≈ 2.5 µM) | 1 (≈ 3.57 µM) | 0.38 (≈ 1.35 µM) | 1.04 (≈ 3.71 µM) | 2 | 0.7 | 30 | 1.5 | 0.9 (≈ 3.21 µM) | 1 (≈ 3.57 µM) | 15 | 0.7 | 0.6 (≈ 2.14 µM) | 0.65 (≈ 2.32 µM) | Activity (SK-OV-3): inactive; Activity (BT-549): inactive; Activity (KB): inactive; Activity (SK-MEL): inactive; IC50 (Candida albicans [11]): 0.45 µg/mL (≈ 1.6 µM); Activity (Vero): Not Active; Fungicidal (Candida albicans [12]): 1.5 µg/mL; IC80 (Candida albicans [12]): 1 µg/mL (≈ 3.57 µM) |
| C[C@@H]1[C@H](O)[C@@H](C)/C=C/C=C/C=C/C=C/C=C/C=C/C=C/[C@H](O[C@@H]2O[C@H](C)[C@@H](O)[C@H](N)[C@@H]2O)C[C@@H]2O[C@](O)(C[C@@H](O)C[C@@H](O)[C@H](O)CC[C@@H](O)C[C@@H](O)CC(=O)O[C@H]1C)C[C@H](O)[C@H]2C(=O)O [AMPHOTERICIN B] | – | – | – | – | – | – | – | – | 0.23 (≈ 0.249 µM) | 0.52 (≈ 0.563 µM) | – | – | 0.65 | – | – | – | 0.4 | – | – | – | – |
| OC(Cn1cncn1)(Cn1cncn1)c1ccc(F)cc1F [FLUCONAZOLE] | 0.7 | 0.65 | 10 | 1 (≈ 3.27 µM) | 5 (≈ 16.3 µM) | 10 | 7.5 (≈ 24.5 µM) | 10 (≈ 32.7 µM) | – | 0.29 (≈ 0.947 µM) | 0.5 | 0.3 | 0.75 | 25 | 15 (≈ 49 µM) | 20 (≈ 65.3 µM) | 0.8 | 2 | 0.2 (≈ 0.653 µM) | 40 (≈ 131 µM) | Activity (Candida albicans [13]): inactive; IC80 (Candida albicans [12]): 95 µg/mL (≈ 310 µM) |
| Nc1nc(=O)[nH]cc1F [FLUCYTOSINE] | 0.1 | 0.25 | – | – | – | – | – | – | 0.47 (≈ 3.64 µM) | 1.04 (≈ 8.06 µM) | 0.15 | 0.2 | 0.25 | – | – | – | 0.2 | – | – | – | – |
